Experimental data taken from the supplement of paper PMC10307832.

Legend:
Experiment in all cases: relative viability (nuclei count vs DMSO), 5 days (fraction); higher = more cells survive
Serdemetan + Dasatinib = compound: c1ccc2c(CCNc3ccc(Nc4ccncc4)cc3)c[nH]c2c1 [Serdemetan] + Cc1nc(Nc2ncc(C(=O)Nc3c(C)cccc3Cl)s2)cc(N2CCN(CCO)CC2)n1 [Dasatinib] (partner 0.075 µM)
Outline: (§1)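 The day after seeding in 1536-well plates, lung cancer cell lines were treated by pin tool with a single drug, or with a fixed anchor-drug dose together with five library-drug doses (not always all listed) in √10 steps. After 5 days, a combined fix-and-stain solution (final 0.05% Triton X-100, 1% formaldehyde, 1 ug/ml Hoechst) was added. Nuclei counted on 4× images gave relative viability as treated counts over vehicle counts, reported as the median of duplicate plates.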

Selisistat + Decitabine = compound: C1CC(C2=C(C1)C3=C(N2)C=CC(=C3)Cl)C(=O)N [Selisistat] + Nc1ncn([C@H]2C[C@H](O)[C@@H](CO)O2)c(=O)n1 [Decitabine] (partner 2 µM)
Outline: as §1

Serdemetan + Luminespib = compound: c1ccc2c(CCNc3ccc(Nc4ccncc4)cc3)c[nH]c2c1 [Serdemetan] + CCNC(=O)c1noc(-c2cc(C(C)C)c(O)cc2O)c1-c1ccc(CN2CCOCC2)cc1 [Luminespib] (partner 0.01 µM)
Outline: as §1

Selisistat + Bortezomib = compound: C1CC(C2=C(C1)C3=C(N2)C=CC(=C3)Cl)C(=O)N [Selisistat] + CC(C)C[C@H](NC(=O)[C@H](Cc1ccccc1)NC(=O)c1cnccn1)B(O)O [Bortezomib] (partner 0.002 µM)
Outline: as §1

| Cell Line | relative viability (Serdemetan + Dasatinib; first compound 0.04 µM) | relative viability (Serdemetan + Dasatinib; first compound 0.1265 µM) | relative viability (Serdemetan + Dasatinib; first compound 0.4 µM) | relative viability (Serdemetan + Dasatinib; first compound 1.265 µM) | relative viability (Serdemetan + Dasatinib; first compound 4 µM) | relative viability (Selisistat + Decitabine; first compound 0.4 µM) | relative viability (Selisistat + Decitabine; first compound 1.265 µM) | relative viability (Selisistat + Decitabine; first compound 4 µM) | relative viability (Selisistat + Decitabine; first compound 12.65 µM) | relative viability (Selisistat + Decitabine; first compound 40 µM) | relative viability (Serdemetan + Luminespib; first compound 0.04 µM) | relative viability (Serdemetan + Luminespib; first compound 0.1265 µM) | relative viability (Serdemetan + Luminespib; first compound 0.4 µM) | relative viability (Serdemetan + Luminespib; first compound 1.265 µM) | relative viability (Serdemetan + Luminespib; first compound 4 µM) | relative viability (Selisistat + Bortezomib; first compound 0.4 µM) | relative viability (Selisistat + Bortezomib; first compound 1.265 µM) | relative viability (Selisistat + Bortezomib; first compound 40 µM) | relative viability (Selisistat + Bortezomib; first compound 4 µM) | relative viability (Selisistat + Bortezomib; first compound 12.65 µM) |
| --- | --- | --- | --- | --- | --- | --- | --- | --- | --- | --- | --- | --- | --- | --- | --- | --- | --- | --- | --- | --- |
| NCI-H727 | 0.36 | 0.42 | 0.445 | 0.251 | 0.25 | 0.851 | 0.891 | 0.446 | 0.898 | 0.818 | 0.319 | 0.481 | 0.288 | 0.265 | 0.385 | 1.01 | 0.623 | 0.864 | – | – |
| NCI-H838 | 0.291 | 0.345 | 0.272 | 0.276 | 0.273 | 0.557 | 0.459 | 0.475 | 0.45 | 0.454 | 0.266 | 0.319 | 0.383 | 0.2 | 0.328 | 0.803 | 0.73 | 1.01 | 0.603 | 0.878 |
| NCI-H1355 | 0.78 | 0.759 | 0.601 | 0.602 | 0.76 | 0.336 | 0.383 | 0.345 | 0.338 | 0.388 | 0.671 | 0.667 | 0.609 | 0.353 | 0.449 | 1.18 | 1.21 | 1.35 | – | 1.13 |
| NCI-H1437 | 0.347 | 0.352 | 0.388 | 0.274 | 0.289 | 0.61 | 0.597 | 0.528 | 0.503 | 0.543 | 1.11 | 1 | 1.06 | 1.02 | 0.788 | 0.575 | 0.451 | 0.515 | 0.378 | 0.431 |
| NCI-H1650 | 0.297 | 0.345 | 0.272 | 0.34 | 0.268 | 0.545 | 0.422 | 0.382 | 0.481 | 0.438 | 0.212 | 0.213 | 0.205 | 0.177 | 0.184 | 0.281 | 0.205 | 0.22 | 0.222 | 0.202 |
| NCI-H1651 | 0.296 | 0.319 | 0.281 | 0.237 | 0.186 | 0.673 | 0.699 | 0.484 | 0.58 | 0.624 | 0.714 | 0.591 | 0.457 | 0.473 | 0.273 | 1.02 | 0.939 | 0.847 | 0.868 | 0.874 |
| NCI-H1666 | 0.797 | 0.736 | 0.829 | 0.597 | 0.663 | 0.825 | 0.699 | 0.692 | 0.687 | 0.778 | 1.01 | 0.992 | 1.05 | 0.869 | 0.811 | 1.07 | 0.797 | 0.547 | 0.612 | 0.739 |
| NCI-H1734 | 0.384 | 0.371 | 0.402 | 0.117 | 0.131 | 0.562 | 0.436 | 0.45 | 0.556 | 0.455 | 0.198 | 0.24 | 0.196 | 0.15 | 0.186 | 0.902 | 0.879 | 0.869 | 0.946 | 1.1 |
